This note sets out measurements from patent publication US20230096145A1, “METHODS OF CONTROLLING OR PREVENTING INFESTATION OF PLANTS BY THE PHYTOPATHOGENIC MICROORGANISM CORYNESPORA CASSIICOLA” (SYNGENTA CROP PROTECTION AG, priority 2020, published 2023).

A value given as a limit tells only on which side of the number the result lay.

In the experiment the test system is Corynespora cassiicola. The experiment in a line: Corynespora cassiicola liquid culture growth inhibition (microtiter plate, PDB). The experiment is classed as cell-based. The conditions noted are these: compared to untreated control, photometric at 620 nm after 3-4 days at 24 C. Here is the method: Conidia of the fungus from cryogenic storage were directly mixed into nutrient broth (PDB potato dextrose broth). A DMSO solution of the test compounds was placed into a microtiter plate (96-well format) and the nutrient broth containing the fungal spores was added to it. The test plates were incubated at 24 C and the inhibition of growth (% control of Corynespora cassiicola) was determined photometrically after 3-4 days at 620 nm. The activity of a compound is derived by comparing the inhibition of growth in the treated test solution to the growth in the untreated check. The concentration of the compounds was 6.7, 2.2, 0.74, 0.25, 0.082 and 0.027 ppm.
For `Cc1ccc2c(C3=NC(C)(C)C(F)(F)c4ccccc43)cnn2c1C` [Compound 1], the inhibition (usually the change of the read-out against control, counted positive when it falls) at 6.7 ppm was at least 70%.
Consider `Cc1cccc2c(C3=NC(C)(C)C(F)(F)c4ccccc43)cnn12` [Compound 2], for which the inhibition at 6.7 ppm is at least 70%.
Regarding `Cc1ccc2c(C3=NC(C)(C)C(F)(F)c4ccccc43)cnn2c1` [Compound 3], the inhibition at 6.7 ppm is at least 70%.
In turn, `Cc1ccc2c(C3=NC(C)(C)C(F)(F)c4c(F)cccc43)cnn2c1C` [Compound 4] displayed an inhibition at 6.7 ppm of at least 70%.
As for `Cc1ccc2c(C3=NC(C)(C)C(F)(F)c4cc(F)ccc43)cnn2c1C` [Compound 5], the figure is at least 70%.
